Read-outs that look alike come from different tables or passages of the source.
What was measured:
rats = details: cited from earlier work
[1] = test system: subject with diabetes or hyperglycemia; assay: Example 11: treatment of glucose metabolism disorders; assay type: in vivo; details: about 50-5000 μg daily, orally
Experimental: A subject is identified with one or more glucose metabolism disorders such as diabetes or hyperglycemia. The subject is orally administered between about 50 μg and 5000 μg chromium polyhistidinate daily.

[2] = test system: subject having insulin resistance; assay: Example 5: treatment of insulin resistance; assay type: in vivo; details: about 50-5000 μg daily, orally, in the form of a bar
Experimental: A subject is identified as having insulin resistance. […] The subject is administered between about 50 μg and 5000 μg chromium polyhistidinate daily, orally, in the form of a bar.

subject having impotence = assay: Example 6: treatment of sexual dysfunction; assay type: in vivo; details: about 50-5000 μg daily, orally
Experimental: A subject is identified as having impotence. The subject is orally administered between about 50 μg and 5000 μg chromium trihistidinate daily.

[3] = test system: subject with compromised renal function; assay: Example 10: treatment of renal disorders; assay type: in vivo; details: between 50 μg and 5000 μg daily
Experimental: A subject is identified with compromised renal function. […] The subject is administered an effective amount of chromium trihistidinate daily, e.g. between 50 μg and 5000 μg chromium trihistidinate daily. After a period of time, the subject's renal function improves.

[4] = test system: subject having cardiometabolic syndrome; assay: Example 3: treatment of cardiometabolic syndrome; assay type: in vivo; details: between 50 μg and 5000 μg/day, orally
Experimental: A subject is identified as having cardiometabolic syndrome. The subject presents with one or more symptoms associated with cardiometabolic syndrome such as obesity, hypertension, dyslipidemia, impaired glucose tolerance, diabetes, an increase in C-reactive protein, and increase in TNFα, an increase in IL-6, an increase in IL-10, or an increase in oxidative stress.
The individual is administered between 50 μg and 5000 μg chromium histidinate complex/day, orally. The chromium histidinate is administered orally.

[5] = test system: subject with cardiovascular disease; assay: Example 8: treatment of cardiovascular disease; assay type: in vivo; details: about 50-5000 μg daily
Experimental: (§1) A subject is identified with cardiovascular disease. […] The subject is provided between about 50 μg and 5000 μg chromium histidinate daily. After a period of time, the subject's arteriosclerosis, atherosclerosis, peripheral vascular disease, or coronary heart disease improves.

Hep G2 cells [6] = assay: Media glucose levels of HepG2 cell cultures; assay type: cell-based, human; details: 0.2 μM, in the absence of insulin; p<0.05 vs control
Experimental: (§2) Hep G2 cells are liver cells derived from a human hepatoblastoma that is free of known hepatotropic viral agents. This cell line expresses a wide variety of liver-specific metabolic functions and is used as a model system to study cholesterol and triglyceride metabolism. The effects of chromium histidinate on triglyceride secretion and on media glucose levels, the HepG2 cell line was grown in culture media with or without insulin in the presence of 0, 0.2, 2, or 20 μM chromium histidinate. Media glucose levels and triglyceride levels were measured using standard protocols. Specifically, triglyceride levels were measured spectrophotometrically through hydrolysis by lipase and coupled enzyme reactions on the resulting glycerol. Glucose levels were measured spectrophotometrically using the glucose oxidase method, with a standard dilution curve serving to calibrate the measurements.

normal rats = assay: Glucose and lipid metabolism in normal rats fed standard diet (groups 1 and 2); details: standard diet + chromium histidinate 12 weeks
Experimental: (§3) Wistar rats were reared at the temperature of (22±2° C.), humidity (55±5%) and a 12/12 h light/dark cycle. Pellet food and water were provided ad libitum.
(§4) Fat-fed/STZ treated rats provide an animal model for type 2 diabetes that simulates the human syndrome, and is suitable for the testing of antidiabetic compounds (See, e.g., Reed et al. (2000) Metabolism 49(11):1390-1394). Rats fed a high fat diet can be used as a model system for insulin resistance. Ten Wistar rats (55 days old) in each group were treated as follows:
Group 1: Control rats were fed standard diet (12% of calories as fat) for 12 weeks.
Group 2: Control rats were fed standard diet+chromium histidinate for 12 weeks.

insulin resistant rats = assay: Glucose and lipid metabolism in insulin resistant rats fed high fat diet (groups 3 and 4); assay type: in vivo, Wistar rats; details: approx. 110 mcg/kg body.d in water, 12 weeks
Experimental: as §3, §4
Group 3: Rats were fed high fat diet (40% of calories as fat) for 12 weeks.
Group 4: Rats were fed high-fat diet (40% of calories as fat) and chromium histidinate (approx. 110 mcg/kg body.d) was included into water for 12 weeks.

[7] = test system: subject having a dyslipidemia; assay: Example 14: treatment of dyslipidemia; assay type: in vivo; details: about 50-5000 μg daily, orally; one or more of the listed changes
Experimental: A subject is identified as having a dyslipidemia. […] The subject is administered between about 50 μg and 5000 μg chromium histidinate daily, orally.

[8] = test system: subject with a PPAR associated disorder; assay: Example 13: treatment of PPAR disorders; assay type: in vivo; details: about 50-5000 μg, orally, daily
Experimental: A subject is identified with a PPAR associated disorder. The subject has one or more of the following symptoms or conditions: rheumatoid arthritis, multiple sclerosis, inflammatory bowel disease, breast, colon, or prostate cancer, low levels of blood, lymph and/or cerebrospinal fluid apoE and/or apo A-1, elevated serum VLDL cholesterol levels, elevated serum LDL cholesterol levels, elevated triglyceride levels, elevated serum apo B levels, or the like. The subject is administered between about 50 μg and 5000 μg chromium histidinate, orally, daily. After a period of time, the subject's symptoms improve.

[9] = test system: subject with cardiovascular disease; assay: Example 9: treatment of cardiovascular disease with combination therapy; assay type: in vivo; details: about 50-5000 μg daily plus a second therapeutic for cardiovascular disease
Experimental: as §1, with “daily. The subject is also provided a therapeutically effective amount of a second therapeutic for cardiovascular disease such as peripheral antiadrenergic therapy, antihypertensive drugs, vasodilators, inodilators, cardiac glycosides, antidysrhythmic drugs.” for “daily.”

diabetic rats = assay: Glucose and lipid metabolism in high fat diet/streptozotocin diabetic rats (groups 5 and 6); assay type: in vivo, Wistar rats; details: high-fat diet + STZ 40 mg/kg i.p. rats, 110-mcg/kg body.d in water, 10 weeks
Experimental: as §3, §4
Group 5: Rats were fed high-fat diet (40% of calories as fat) for 2 weeks and then injected with streptozotocin (STZ, 40 mg/kg i.p.) for 12 weeks.
Group 6: Rats were fed high-fat diet (40% of calories as fat) for 2 weeks and then injected with streptozotocin (STZ, 40 mg/kg i.p.) and chromium histidinate was included into water at a concentration of 110-mcg/kg body.d for 10 weeks.
Before STZ injection glucose concentrations of rats were measured and compared to controls.

Hep G2 cells [10] = assay: Triglyceride secretion into culture media by HepG2 cells; assay type: cell-based, human; details: 0.2 μM, in the presence of insulin; p<0.05 vs control
Experimental: as §2

[11] = rats, NSAID co-administered; cited from earlier work
[12] = cited from earlier work

Compound: chromium picolinate
- toxic effects (rats; rat, in vivo): without toxic effects

Compound: chromium polyhistidinate
- fasting and/or post-prandial glucose levels [1]: improvement
- hyperinsulinemia [2]: decreased
- insulin function [2]: improved

Compound: chromium trihistidinate
- sexual function (subject having impotence): improved
- renal function [3]: improves

Compound: chromium histidinate
- symptoms associated with cardiometabolic syndrome [4]: reduction in one or more of the symptoms
- arteriosclerosis, atherosclerosis, peripheral vascular disease, or coronary heart disease [5]: improves
- glucose in the media (Hep G2 cells [6]): significant decrease
- free fatty acid levels (normal rats): decreases
- insulin levels (normal rats): increases
- insulin sensitivity (normal rats): increases
- serum chromium levels (normal rats): increases
- serum glucose levels (normal rats): lowers
- serum triglyceride levels (normal rats): decreases
- total serum cholesterol levels (normal rats): decreases
- body weight (insulin resistant rats): significantly lowers
- cortisol levels (insulin resistant rats): decreases
- free fatty acid levels (insulin resistant rats): decreases
- insulin levels (insulin resistant rats): increases
- insulin sensitivity (insulin resistant rats): increases
- serum glucose levels (insulin resistant rats): lowers
- total serum cholesterol levels (insulin resistant rats): decreases
- triglyceride levels (insulin resistant rats): decreases
- serum HDL cholesterol levels [7]: increased
- serum LDL cholesterol levels [7]: decreased
- serum triglyceride levels [7]: decreased
- total serum cholesterol levels [7]: decreased
- symptoms of PPAR associated disorder [8]: improve
- arteriosclerosis, atherosclerosis, peripheral vascular disease, or coronary heart disease [9]: improves
- body weight (diabetic rats): significantly lowers
- cortisol levels (diabetic rats): decreases
- free fatty acid levels (diabetic rats): decreases
- insulin levels (diabetic rats): increases
- insulin sensitivity (diabetic rats): increases
- serum glucose levels (diabetic rats): lowers
- total serum cholesterol levels (diabetic rats): decreases
- triglyceride levels (diabetic rats): decreases
- triacylglycerol (triglycerides secreted into culture media) (Hep G2 cells [10]): significantly decreased

Compound: CC(=O)Oc1ccccc1C(=O)O [aspirin]
- chromium absorption following oral administration of CrCl3 [11]: facilitated

Compound: N[C@@H](Cc1c[nH]cn1)C(=O)O [histidine]
- pKa [12]: ~6.0

Compound: [Cl][Cr]([Cl])[Cl] [chromium chloride]
- toxic effects (rats; rats, levels several thousand times the upper limit of the ESADDI for chromium for humans (based on body weight)): without toxic effects

Reference: patent US20220023337A1, “USE OF CHROMIUM HISTIDINATE FOR TREATMENT OF CARDIOMETABOLIC DISORDERS” (NUTRITION 21, LLC, priority 2007, published 2022)
